TGI and GI50 data for eleven molecules are collected here from PubChem BioAssay (NCI).

Test systems include UACC-62 melanoma; SF-268 CNS; UACC-257 melanoma; UO-31 renal; SW-620 colon; NCI-H226 lung; SN12C renal; NCI/ADR-RES ovarian; CAKI-1 renal; SK-MEL-2 melanoma.
Assay in all cases: NCI anticancer screen, dose series, 48 h

Several values for one entry are separate records, joined by “and”; a condition that tells them apart may be missing. Equal entries are not always repeated.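 Values below derive from 48-hour exposures of cells grown in 96-well plates, with endpoints linearly interpolated between the two concentrations bracketing the appropriate inhibition level. Abbreviation: GI50, concentration required for 50% inhibition of growth. TGI: concentration producing complete growth inhibition.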

With `C[C@@H](NC(C#N)c1ccco1)c1ccccc1` (stereo partly specified), the TGI in the test on UACC-62 melanoma, in the test with SF-268 CNS, in the test with UACC-257 melanoma, in the test on UO-31 renal, in the test on SW-620 colon and with NCI-H226 lung was above 100 µM in each case. The TGI with SN12C renal and in the test with NCI/ADR-RES ovarian was above 100 µM each time.
`O=[N+]([O-])c1ccccc1N=Nc1c(O)[nH]c2cccc(C(F)(F)F)c12`: the TGI was above 100 µM in the test on UACC-62 melanoma; above 100 µM with SF-268 CNS; 34.5 µM in the test on UACC-257 melanoma; above 100 µM with UO-31 renal; above 100 µM in the test with CAKI-1 renal; above 100 µM in the test on SW-620 colon. Further, the TGI in the test with SK-MEL-2 melanoma was above 100 µM; with NCI-H226 lung it was above 100 µM; in the test with SN12C renal, 73.8 µM; with NCI/ADR-RES ovarian, above 100 µM.
Turning to `N#CC(C#N)=C/C=C(\Cl)c1ccc(Cl)cc1`, the GI50 in the test on UACC-62 melanoma is 6.13 µM; in the test with SF-268 CNS it was 14.1 µM; with UACC-257 melanoma it was 14.8 µM; with UO-31 renal, 14.4 µM; in the test on CAKI-1 renal, 3.78 µM; with SW-620 colon, 1.93 µM. Further, the GI50 was 17.7 µM with SK-MEL-2 melanoma, 7.69 µM with NCI-H226 lung, 4.52 µM in the test on SN12C renal and 4.57 µM in the test on NCI/ADR-RES ovarian. Further, the TGI in the test on UACC-62 melanoma was determined as 22.8 µM; with SF-268 CNS, 50.5 µM; in the test on UACC-257 melanoma, 30.2 µM; with UO-31 renal, 44.9 µM; with CAKI-1 renal it was 12.6 µM; with SW-620 colon, 9.9 µM. Further, the TGI in the test on SK-MEL-2 melanoma is above 100 µM; with NCI-H226 lung, 33.9 µM; in the test on SN12C renal, 26.7 µM; in the test with NCI/ADR-RES ovarian, 16.2 µM.
`COc1cc2c(c3c1c(=O)c1ccccc1n3C)C=CC1(CCCC1)O2`: the TGI worked out at 29.1 µM with UACC-62 melanoma; 46.8 µM with SF-268 CNS; 31 µM with UACC-257 melanoma; 6.33 µM with CAKI-1 renal; 37.2 µM with SW-620 colon; 33.6 µM in the test with SK-MEL-2 melanoma. Moreover, the TGI is 37.1 µM with NCI-H226 lung, 37.2 µM with SN12C renal and above 100 µM in the test with NCI/ADR-RES ovarian.
Consider `CN(C)CCNC(=O)Cn1ccc(=O)c2cc([N+](=O)[O-])ccc21`, for which the TGI in the test with UACC-62 melanoma, in the test with SF-268 CNS, in the test on UACC-257 melanoma, in the test with UO-31 renal, in the test on CAKI-1 renal and in the test on SW-620 colon was above 100 µM throughout. Further, the TGI with SK-MEL-2 melanoma, in the test on NCI-H226 lung, with SN12C renal and in the test with NCI/ADR-RES ovarian was above 100 µM throughout.
Take `CC(=O)c1c(C(F)(F)F)n([O-])c2ccccc2[n+]1=O`: the GI50 with UACC-62 melanoma is 0.7 µM; in the test on SF-268 CNS, 1.49 µM; in the test on UACC-257 melanoma it was 2.77 µM; with UO-31 renal it was 2.69 µM; in the test with CAKI-1 renal, 1.21 µM; with SW-620 colon, 1.57 µM. Besides, the GI50 is 4.56 µM in the test on SK-MEL-2 melanoma, 1.46 µM in the test on NCI-H226 lung, 1.07 µM in the test with SN12C renal and 1.49 µM with NCI/ADR-RES ovarian. The TGI in the test with UACC-62 melanoma is 3.02 µM; with SF-268 CNS it was 6.13 µM; in the test on UACC-257 melanoma, 13.6 µM; in the test with UO-31 renal it was 12.1 µM; in the test with CAKI-1 renal, 3.8 µM; with SW-620 colon, 13.3 µM. In addition, the TGI is above 100 µM in the test with SK-MEL-2 melanoma, 3.91 µM in the test on NCI-H226 lung, 3.17 µM in the test on SN12C renal and 2.93 µM in the test on NCI/ADR-RES ovarian.
Take `CC1CC(C)CC(C)C(O)/C(C#N)=C/C=C/CC(C2CCCC2C(=O)O)OC(=O)CC(O)C(C)C1` (stereo unspecified): the GI50 in the test on UACC-62 melanoma was 0.0112 µM; in the test on SF-268 CNS, 0.0307 µM; in the test on UACC-257 melanoma, 0.0359 µM; in the test with UO-31 renal, 0.027 µM; in the test with CAKI-1 renal, 0.0166 µM; in the test on SW-620 colon it was 0.0834 µM. Also, the GI50 in the test on SK-MEL-2 melanoma is 0.00139 µM; with NCI-H226 lung, 0.031 µM; in the test with SN12C renal, 0.0342 µM; in the test with NCI/ADR-RES ovarian, 0.187 µM and < 0.0196 µM. The TGI was 0.0296 µM and 0.015 µM in the test with UACC-62 melanoma; 0.311 µM and 0.117 µM in the test on SF-268 CNS; 0.17 µM and 0.0491 µM with UACC-257 melanoma; 0.15 µM and 0.0217 µM with UO-31 renal; 0.254 µM and 0.221 µM with CAKI-1 renal; 0.725 µM and 1.34 µM in the test on SW-620 colon. Also, the TGI was 0.00545 µM in the test on SK-MEL-2 melanoma; 0.0951 µM and 0.029 µM in the test on NCI-H226 lung; 0.342 µM and 0.727 µM in the test on SN12C renal; 0.265 µM with NCI/ADR-RES ovarian.
Turning to `N=C1C(O)C2(I)c3ccccc3N3C(=N)C(O)C4c5ccccc5N1C4C32` (stereo unspecified), the TGI in the test on UACC-62 melanoma, in the test with SF-268 CNS, in the test with UACC-257 melanoma, in the test with UO-31 renal, in the test on CAKI-1 renal and with SW-620 colon was above 100 µM throughout. Moreover, the TGI in the test with SK-MEL-2 melanoma, with SN12C renal and in the test on NCI/ADR-RES ovarian was above 100 µM each time.
Regarding `Cn1ncc(-c2ccc3c(=O)[nH]nc(CN)c3c2)c1-c1c(F)c(Cl)cc(OC2CC2)c1C#N`, the GI50 in the test with SF-268 CNS is 14.1 µM and 12.8 µM; with UACC-257 melanoma, 13.9 µM and 14.1 µM; in the test with UO-31 renal it was 12.4 µM and 10.3 µM; in the test with CAKI-1 renal it was 11.6 µM and 11.2 µM; in the test on SW-620 colon, 13.8 µM and 12.6 µM; with SK-MEL-2 melanoma, 15.3 µM and 13.6 µM. For the same molecule, the GI50 was 15.7 µM and 13.2 µM in the test with NCI-H226 lung; 13.5 µM and 11.8 µM in the test with SN12C renal; 35 µM and 25.5 µM with NCI/ADR-RES ovarian. Further, the TGI with SF-268 CNS was 28.8 µM and 26.7 µM; in the test on UACC-257 melanoma it was 28.4 µM and 29.4 µM; in the test with UO-31 renal it was 24.9 µM and 22.1 µM; with CAKI-1 renal, 24.1 µM and 23.6 µM; in the test on SW-620 colon, 29.4 µM and 27.3 µM; in the test on SK-MEL-2 melanoma, 29.1 µM and 26.8 µM. In addition, the TGI with NCI-H226 lung is 32 µM and 27.4 µM; in the test on SN12C renal, 28.7 µM and 25.3 µM; in the test on NCI/ADR-RES ovarian, above 100 µM.
Regarding `CCNCCNC(=O)c1ccc(I)cc1`, the TGI in the test with UACC-62 melanoma, in the test on SF-268 CNS, in the test with UO-31 renal, in the test on CAKI-1 renal, in the test with SW-620 colon and in the test on NCI-H226 lung was above 100 µM each time. For the same molecule, the TGI with SN12C renal and in the test on NCI/ADR-RES ovarian was above 100 µM each time.
For the molecule `CC(=O)Nc1ccc(-c2cc(C(=O)O)c3cc4ccccc4cc3n2)cc1`, the TGI in the test with UACC-62 melanoma, in the test with SF-268 CNS, with UACC-257 melanoma, with CAKI-1 renal, in the test on SW-620 colon and in the test with SK-MEL-2 melanoma was above 100 µM in each case. Besides, the TGI in the test on NCI-H226 lung, in the test with SN12C renal and with NCI/ADR-RES ovarian was above 100 µM each time.
